“Also recorded” adds a separate entry of the source.
How the values were obtained:
[1] = system: oronasal fistula (ONF) in the hard palate; test: Murine oronasal fistula (ONF) model, wound healing after scaffold implantation; format: in vivo, mice
Excerpt: To understand the wound healing characteristics of the oral mucosa, the present disclosure provides an ONF model utilizing thermal injury for creating the ONF. In at least one embodiment, the ONF model permits study of the cellular and inflammatory infiltration to the wound site during the healing process. An exemplary analysis of FTY720 effects on ONF healing in the model includes, but is not limited to: 1) forming an ONF in each of a plurality of samples (e.g., mice); 2) dividing the mice into 3 groups, a no implant group, a group where blank nanofiber scaffolds are implanted, and a group where uniaxially-aligned nanofiber scaffolds with FTY720 are implanted; and 3) evaluating ONF healing results at predetermined time points (e.g., day 3, day 5, day 7, etc.).
To produce a Murine ONF model, 12 week old C57/b6 mice are obtained (for example from Jackson Laboratories) and anesthetized using intraperitoneal ketamine. According to one embodiment, the oral cavity is accessed using a retractor while the mice are spontaneously breathing. […] The time points include 0, 3, 5, and 7 days and healing of the ONF is assessed using histomorphometry while functional outcomes are measured evaluating for poor oral intake measured by body weight loss, dehydration (serum sodium using an ELIZA assay), and eventual death (Kaplan Meir curve).
After staining the slides, Hamamatsu NanoZoomer 2.0 HT processor was used to scan slides and they were then analyzed in Hamamatsu NDP.view2 Viewing Software. […]
To determine if a targeted auto-therapy induction of pro-regenerative monocytes and macrophages would lead to improved ONF healing, the delivery of FTY-720, a sphingosine analog that increases pro-regenerative monocytes and macrophages was tested via a nanofiber scaffold. […] With reference to FIGS. 13A-D, to examine the effects of the FTY-720 on the host inflammatory response, quantitative polymerase chain reaction (PCR) on the mucosal tissue surrounding the injury was performed and determined that IL-1 was decreased in the presence of FTY-720 whereas IL-6 and IL-10 were increased.

LY6C^lo monocytes = test: Flow cytometry of hard palate mucosa in ONF model, monocytes; format: in vivo, mice
Excerpt: (§1) FTY720 is a sphingosine-1-phosphate receptor analogue that is linked to LY6C^lo (anti-inflammatory) monocytes and M2 (Pro-regenerative) macrophages attraction. According to one embodiment, for analysis of lymphocyte populations, cells are stained for flow cytometry with one or more of the following antibodies: Zombie NIR™ Fixable Viability Kit (Biolegend), PE anti-mouse MERTK (Mer) Antibody (Biolegend), Brilliant Violet 711™ anti-mouse CD64 (FcγRI) Antibody (Biolegend), Brilliant Violet 510™ anti-mouse Ly-6C Antibody (Biolegend), FITC anti-mouse CD206 (MMR) Antibody (Biolegend), Brilliant Violet 421™ anti-mouse/human CD11b Antibody (Biolegend). In various embodiments, to detect and sort for anti-inflammatory LY6C^lo monocytes and M2 Macrophages, real-time polymerase chain reaction (PCR) analysis is performed with iQ SYBR green supermix (Bio-Rad, 1708882) in a Bio-Rad iCycler for 40 cycles to assess the expression of inflammatory IL-1, IL-4 and IL-6 and anti-inflammatory IL-10 and transcription factor Sox2, which is related to keratinocyte migration and proliferation. In one or more embodiments, slides are stained for H&E and Phospho-histone 3 to assess keratinocytes undergoing mitosis.
In various embodiments, flow cytometry of inflammatory cells is performed to characterize monocyte and macrophage phenotypes. In one or more embodiments, for analysis of lymphocyte populations, hard palate mucosa is harvested and digested in 1 mg/ml collagenase I (Sigma) for 45 minutes at 37 degrees Celsius. In at least one embodiment, the digested mucosa is filtered through a cell strainer to obtain a single cell suspension. According to one embodiment, the single-cell suspensions are stained for live cells using either Zombie Green or Zombie NIR (Biolegend) dyes in cell-culture grade PBS per manufacturer instructions. In various embodiments, cells are stained with cell phenotyping antibodies in a 1:1 volume ratio of 3% FBS and Brilliant Stain Buffer (BD Biosciences) according to standard procedures and analyzed on a FACS AriaIIIu flow cytometer (BD Biosciences). […] According to one embodiment, 30 μL of Accucheck Counting Beads (Invitrogen) are added per sample for absolute quantification of cell populations.
(§2) For analysis of lymphocyte populations, oral mucosal tissues were harvested and digested in 1 mg/ml collagenase I (Sigma) for 45 minutes at 37 degrees Celsius. […] Cells were then stained with cell phenotyping antibodies in a 1:1 volume ratio of 3% FBS and Brilliant Stain Buffer (BD Biosciences) according to standard procedures and analyzed on a FACS AriaIIIu flow cytometer (BD Biosciences). […]

M2 macrophages = test: Flow cytometry of hard palate mucosa in ONF model, macrophages; format: in vivo, mice
Excerpt: as §1, with “In one or more embodiments, slides are stained for H&E and Phospho-histone 3 to assess keratinocytes undergoing mitosis.” left out
In various embodiments, flow cytometry of inflammatory cells is performed to characterize monocyte and macrophage phenotypes. […] In various embodiments, cells are stained with cell phenotyping antibodies in a 1:1 volume ratio of 3% FBS and Brilliant Stain Buffer (BD Biosciences) according to standard procedures and analyzed on a FACS AriaIIIu flow cytometer (BD Biosciences). […] According to one embodiment, 30 μL of Accucheck Counting Beads (Invitrogen) are added per sample for absolute quantification of cell populations.
as §2

IL-1 = test: Quantitative PCR of hard palate mucosa around the injury, IL-1; format: in vivo, mice; conditions: vs blank scaffold
Excerpt: (§3) FTY720 is a sphingosine-1-phosphate receptor analogue that is linked to LY6C^lo (anti-inflammatory) monocytes and M2 (Pro-regenerative) macrophages attraction. According to one embodiment, for analysis of lymphocyte populations, cells are stained for flow cytometry with one or more of the following antibodies: Zombie NIR™ Fixable Viability Kit (Biolegend), PE anti-mouse MERTK (Mer) Antibody (Biolegend), Brilliant Violet 711™ anti-mouse CD64 (FcγRI) Antibody (Biolegend), Brilliant Violet 510™ anti-mouse Ly-6C Antibody (Biolegend), FITC anti-mouse CD206 (MMR) Antibody (Biolegend), Brilliant Violet 421™ anti-mouse/human CD11b Antibody (Biolegend). […]
(§4) According to one embodiment, during oral cavity wound healing following injury, there is predominantly a pro-inflammatory lymphocytic infiltrate. […] According to one embodiment, the IL assessment is performed in samples with and without scaffold placement, and includes using quantitative PCR of hard palate mucosa at day 3, 5, and 7 and comparing results to controls. In at least one embodiment, serum is collected and evaluated for levels of IL1, IL6, IL10 and VEGF using ELIZA to determine if there are systemic alterations in inflammatory and vasculogenic gene regulation and compared to uninjured controls. […]

IL-6 = test: Quantitative PCR of hard palate mucosa around the injury, IL-6; format: in vivo, mice; conditions: vs blank scaffold
Excerpt: as §3, §4

IL-10 = test: Quantitative PCR of hard palate mucosa around the injury, IL-10; format: in vivo, mice; conditions: vs blank scaffold
Excerpt: as §3, §4

[2] = system: palatine and surrounding hard palate bones; test: μCT evaluation of hard palate bones after ONF creation; format: in vivo, mice; conditions: following ONF creation
Experimental: According to one embodiment, similar to humans, the critical wound healing time point is immediately following hard palate injury (or surgery) and fistula healing is unlikely after this critical time period. To assess the critical wound healing time, in at least one embodiment, ONFs are created in Murine models and standard histomorphologic evaluation of the mice following injury at day 0, 3, 5, 7, and 14 days is performed. According to one embodiment, the specimens are assessed using H+E staining of coronal sections in […] (10 male and 10 female) each to evaluate: the width of the ONF, the presence or absence of inflammatory infiltrate at the wound edges, the formation of a basement membrane in the healing areas (using type IV collagen and laminin staining). In at least one embodiment, the exposure of the maxillary and palatine bones as well as the surrounding maxillary structures are evaluated using micro-computed tomography (μCT) imaging.
According to one embodiment, ONF area width is measured at each of the time points and compared to controls. […] In various embodiments, to measure the proliferative and apoptosis response following oral injury, proliferation and apoptosis are assessed. […]

cutaneous wound = test: Cutaneous wound healing / dorsal skinfold window chamber model; format: in vivo
Excerpt: In one example, FTY720 and FTY720-P are released from 1 mm diameter thin films in a cutaneous dorsal skinfold window chamber for 3 days to investigate the in vivo gradient produced by H-ME PLGA film release of S1P receptor targeting compounds.
Multiple approaches can be used to improve the recruitment of the pro-regenerative monocytes and macrophages to cutaneous wounds.

[3] = In vitro release of FTY720 from controlled-release polymers; format: physicochemical; conditions: acid-capped L-A and methyl-ester capped H-ME polymers, incubation in vitro
Excerpt: In one or more embodiments, the S1PR agonist FTY720 is differentially released from polymers for controlled release (“acid-capped” L-A and “methyl-ester capped” H-ME polymers). […] According to one embodiment, an immunoregenerative approach is executed to control how M1 to M2 are spatially and temporally regulated by recruitment of anti-inflammatory monocytes (AM). In at least one embodiment, the immunoregenerative approach includes determining how localized administration of FTY720 is compartmentalized in vivo. In one or more embodiments, the phosphorylated form of the drug FTY720-P is primarily responsible for receptor mediated signaling and has much lower threshold effective concentrations than FTY720 at all of the S1PRs. In at least one embodiment, similar to S1P, FTY720-P must be dephosphorylated by LPP3 to enter the cell. According to one embodiment, once inside the cell, FTY720 can be phosphorylated by sphingosine kinase 2 (SPHK2) and subsequently exported from the cell by Spns2. In various embodiments, the ability of FTY720 to be reversibly phosphorylated allows it to undergo multiple cycles of signaling in the tissue, contributing to a sustained gradient. According to one embodiment, the regulatory roles of local gradients of FTY720 and FTY720-P are differentiable.

S1PRs = conditions: all of the S1PRs; cited from earlier work
[4] = cutaneous wound, local delivery

Row | SMILES | ONF wound healing ([1]; day 5, vs blank scaffold) | ONF wound healing ([1]; day 7, vs blank scaffold) | ONF / oral cavity wound healing ([1]; no time point stated, vs blank scaffold) | LY6C^lo % of total CD11B+ cells (LY6C^lo monocytes; day 3, flow cytometry, implanted scaffold, blank 12.7±5.7) [%] | LY6Clo monocytes in wound bed (LY6C^lo monocytes; day 3, vs blank scaffolds) | LY6C^lo % of total cells (LY6C^lo monocytes; day 3 post-ONF formation, flow cytometry, implanted scaffold, blank 3.7%±0.9) | Ly6Clo monocytes in the wound bed (LY6C^lo monocytes; during healing, no time point stated, vs blank scaffolds) | M2 Macrophages % of total cells (M2 macrophages; day 3, flow cytometry, implanted scaffold, blank 1.4±0.2%) [%] | M2 Macrophages % of Macrophages (M2 macrophages; day 3, flow cytometry, implanted scaffold, blank 34.7±6.4%) [%] | migration of M2 macrophages into a wound bed (M2 macrophages; e.g. in the hard palate, no time point) | IL-1 expression (IL-1) | IL-6 expression (IL-6) | IL-10 expression (IL-10) | μCT changes to the underlying bone [2] | migration of M2 macrophages into a wound bed (cutaneous wound; cutaneous wound context) | cutaneous wound healing (cutaneous wound; [4]) | recruitment of anti-inflammatory (AM, Ly6C^lo) monocytes (cutaneous wound; [4]) | vascularity (cutaneous wound; cutaneous wound, thin film release, 3 days) | in vitro release profile [3] | threshold effective concentrations relative to FTY720 (S1PRs)
1 | CCCCCCCCc1ccc(CCC(N)(CO)CO)cc1 [FTY720] | wound contracture | complete healing | healing, including reepithelization; also recorded: improved wound healing; also recorded: greater injury healing and ONF prevention | 22.5±5.6 | increased | 5.7%±0.6 | increase | 3.7±0.5 | 63.6±3.9 | increases the migration | decreased | increased | increased | did not reveal any changes | increases the migration | improved wound healing | increases the frequency; also recorded: selectively recruits non-classical Ly6C^lo monocytes; also recorded: significantly increases the proportion; also recorded: recruits AM monocytes | increased vascularity | initial burst in the first hours of incubation in vitro, followed by a delay and a second phase of release between 3 and 5 days | 
2 | CCCCCCCCc1ccc(CC[C@](N)(CO)COP(=O)(O)O)cc1 [FTY720-P] |  |  |  |  |  |  |  |  |  |  |  |  |  |  |  |  |  |  |  | much lower

From patent publication US12263277B2, “Uniaxially-aligned nanofiber scaffolds and methods for producing and using same” (Oridivus LLC, priority 2019, dated 2025)
